Measurements: patent publication US8188135B2, “Compounds as cannabinoid receptor ligands” (priority 2008, dated 2012)
pEC50: −log10 of the molar value. Where two headings read alike, the source gives them in different places.

Key:
human CB2 receptors = target: T1, human CB2 receptors (Homo sapiens, UniProt P34972); test: human CB2 radioligand binding assay ([3H]CP 55,940 competition); conditions: human CB2 (Ki, nM), HEK293 membranes, 0.5 nM [3H]CP 55,940
T1 construct: expressed in transfected cells; host or cells: HEK293
In short: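 Membranes from HEK293 cells stably expressing human CB2 (5 μg protein/well) competed against 0.5 nM [3H]CP 55,940 with five concentrations of test ligand (0.01 nM to 10 μM), pH 7.4 Tris buffer with BSA, 90 min at 30 °C. Filtration and scintillation counting; nonspecific binding with 10 μM unlabeled CP 55,940.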

Rat CB1 = target: T2, Rat CB1 (Rattus norvegicus, UniProt P20272); test: rat CB1 cyclase functional assay (HitHunter cAMP); format: cell-based; conditions: HEK cells, forskolin 37 μM; for EC50: Rat CB1 cyclase (EC50, nM)
T2 construct: expressed in transfected cells; host or cells: HEK
Protocol: (§1) The cyclase functional assays were performed using the HitHunter™ cAMP assay kit from DiscoveRx (Fremont, Calif.) according to vendor's protocol. Briefly, HEK cells expressing CB2 or CB1 receptors (rat or human) were detached using cell dissociation buffer (Invitrogen, Carlsbad, Calif.), dispersed and placed in suspension at 10,000 cells per well in 96 well plates prior to the assay. Cell suspensions were incubated at 37° C. for 20 min with variable concentrations of test ligands and or 10 μM CP 55,940-positive control in the presence of a fixed concentration of forskolin (18 μM for rat CB2 and 37 μM for rat CB1) in Dulbescco's phosphate-buffered saline (Invitrogen, Carlsbad, Calif.) supplemented with bovine serum albumin (0.01% final concentration). The reactions were terminated by the addition of lysis buffer and the luminescence was detected following the procedure according to the manufacturer's instructions. EC50 values were calculated using sigmoidal dose-response curve fitting from Prism (GraphPad).

rat CB2 [1] = target: T3, rat CB2 (Rattus norvegicus, UniProt Q9QZN9); test: rat CB2 cyclase functional assay (HitHunter cAMP); format: cell-based; parameters: expressed in transfected cells; host or cells: HEK; conditions: HEK cells, forskolin 18 μM; for EC50: rat CB2 cyclase (EC50, nM)
T3 sequence (Q9QZN9 1-360): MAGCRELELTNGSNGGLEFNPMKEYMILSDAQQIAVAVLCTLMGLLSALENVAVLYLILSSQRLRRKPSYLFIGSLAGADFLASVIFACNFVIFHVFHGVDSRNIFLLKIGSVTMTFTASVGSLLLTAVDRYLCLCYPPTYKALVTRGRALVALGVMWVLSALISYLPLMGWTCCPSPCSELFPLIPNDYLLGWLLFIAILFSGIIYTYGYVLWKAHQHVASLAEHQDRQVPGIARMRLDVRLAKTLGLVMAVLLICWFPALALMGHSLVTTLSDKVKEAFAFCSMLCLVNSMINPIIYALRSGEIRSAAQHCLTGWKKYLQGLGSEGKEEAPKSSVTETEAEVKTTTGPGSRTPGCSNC
Protocol: as §1

rat CB2 [2] = target: T3, rat CB2; test: rat CB2 radioligand binding assay ([3H]CP 55,940 competition); parameters: expressed in transfected cells; host or cells: HEK293; conditions: rat CB2 (Ki, nM), HEK293 membranes, 0.5 nM [3H]CP 55,940
In short: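 Membranes (20 μg protein/well) from HEK293 cells stably expressing the receptor were incubated 45 min at 30 °C with 0.5 nM [3H]CP 55,940 and five concentrations of test compound (0.01 nM–10 μM) in Tris/EDTA/MgCl2/BSA buffer, pH 7.4. Bound ligand was measured by GF/C filtration and scintillation counting; 10 μM CP 55,940 defined nonspecific binding.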

T1 sequence (P34972 whole entry): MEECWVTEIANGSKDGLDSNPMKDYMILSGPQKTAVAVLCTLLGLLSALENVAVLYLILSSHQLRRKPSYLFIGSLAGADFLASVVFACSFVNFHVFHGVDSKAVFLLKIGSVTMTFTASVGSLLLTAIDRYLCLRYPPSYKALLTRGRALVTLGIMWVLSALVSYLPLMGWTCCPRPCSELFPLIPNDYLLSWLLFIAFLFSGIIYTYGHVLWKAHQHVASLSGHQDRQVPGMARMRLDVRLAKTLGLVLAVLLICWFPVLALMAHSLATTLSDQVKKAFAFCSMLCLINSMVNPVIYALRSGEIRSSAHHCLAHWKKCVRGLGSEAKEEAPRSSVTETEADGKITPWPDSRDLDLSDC
T2 sequence (P20272 whole entry): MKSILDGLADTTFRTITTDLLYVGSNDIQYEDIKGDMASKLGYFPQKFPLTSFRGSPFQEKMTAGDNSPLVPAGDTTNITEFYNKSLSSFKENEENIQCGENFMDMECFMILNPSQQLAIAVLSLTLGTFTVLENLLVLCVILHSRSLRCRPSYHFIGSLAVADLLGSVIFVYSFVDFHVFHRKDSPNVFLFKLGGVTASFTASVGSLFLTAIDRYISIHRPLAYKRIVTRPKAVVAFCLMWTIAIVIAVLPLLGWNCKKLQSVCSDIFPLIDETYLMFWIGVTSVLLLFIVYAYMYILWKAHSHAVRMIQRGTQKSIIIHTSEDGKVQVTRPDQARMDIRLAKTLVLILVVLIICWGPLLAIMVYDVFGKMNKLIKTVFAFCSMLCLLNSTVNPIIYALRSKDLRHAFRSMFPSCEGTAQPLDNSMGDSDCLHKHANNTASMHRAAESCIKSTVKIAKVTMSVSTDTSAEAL

| Compound | Ki (human CB2 receptors) [nM] | EC50 (Rat CB1) [nM] | EC50 (rat CB2 [1]) [nM] | Ki (rat CB2 [2]) [nM] | pEC50 (Rat CB1; read-out: Rat CB1 cyclase (EC50)) | pEC50 (rat CB2 [1]; read-out: rat CB2 cyclase (EC50)) |
| --- | --- | --- | --- | --- | --- | --- |
| CCCCn1nc(C(C)(C)C)s/c1=N\C(=O)c1cc(C(F)(F)F)ccc1OC[C@@H]1CCCN1C [Example 29, N-[(2Z)-3-butyl-5-tert-butyl-1,3,4-thiadiazol-2(3H)-ylidene]-2-{[(2S)-1-methylpyrrolidin-2-yl]methoxy}-5-(trifluoromethyl)benzamide] | 14 | 1680 | 3.7 | 11 | – | – |
| Cn1c(C(C)(C)C)c/c(=N\C(=O)c2cc(C(F)(F)F)ccc2OC[C@@H]2CCCO2)n1Cc1ccc(F)cc1 [Example 30, N-[(3E)-5-tert-butyl-2-(4-fluorobenzyl)-1-methyl-1,2-dihydro-3H-pyrazol-3-ylidene]-2-[(2S)-tetrahydrofuran-2-ylmethoxy]-5-(trifluoromethyl)benzamide] | 28 | > 27000 | 2.5 | 23 | – | – |
| CN1CCC[C@H]1COc1ccc(C(F)(F)F)cc1C(=O)/N=c1\oc(C(C)(C)C)cn1C[C@H]1CCCO1 [Example 32, N-[(2Z)-5-tert-butyl-3-[(2R)-tetrahydrofuran-2-ylmethyl]-1,3-oxazol-2(3H)-ylidene]-2-{[(2S)-1-methylpyrrolidin-2-yl]methoxy}-5-(trifluoromethyl)benzamide] | 88 | 3870 | 0.6 | 75 | – | – |
| CN1CCC[C@H]1COc1ccc(C(F)(F)F)cc1C(=O)/N=C1\SC(C)(C)CN1C[C@H]1CCCO1 [Example 33, N-{(2Z)-5,5-dimethyl-3-[(2R)-tetrahydrofuran-2-ylmethyl]-1,3-thiazolidin-2-ylidene}-2-{[(2S)-1-methylpyrrolidin-2-yl]methoxy}-5-(trifluoromethyl)benzamide] | 23 | 5380 | 0.09 | 20 | – | – |
| CN1CCC[C@H]1COc1ccc(C(F)(F)F)cc1C(=O)/N=c1\cc(C(C)(C)C)on1C[C@H]1CCCO1 [Example 39, N-[(3E)-5-tert-butyl-2-[(2R)-tetrahydrofuran-2-ylmethyl]isoxazol-3(2H)-ylidene]-2-{[(2S)-1-methylpyrrolidin-2-yl]methoxy}-5-(trifluoromethyl)benzamide] | 62 | 2620 | 0.63 | 46 | – | – |
| Cn1c(C(C)(C)C)c/c(=N\C(=O)c2cc(C(F)(F)F)ccc2OCc2cnccn2)n1C[C@H]1CCCO1 [Example 40, N-{(3E)-5-tert-butyl-1-methyl-2-[(2R)-tetrahydrofuran-2-ylmethyl]-1,2-dihydro-3H-pyrazol-3-ylidene}-2-(pyrazin-2-ylmethoxy)-5-(trifluoromethyl)benzamide] | 126 | > 27000 | 3.3 | 73 | – | – |
| Cn1c(C(C)(C)C)c/c(=N\C(=O)c2cc(C(F)(F)F)ccc2OCCNC(=O)OC(C)(C)C)n1C[C@H]1CCCO1 [Example 41, tert-butyl 2-[2-[({(3E)-5-tert-butyl-1-methyl-2-[(2R)-tetrahydrofuran-2-ylmethyl]-1,2-dihydro-3H-pyrazol-3-ylidene}amino)carbonyl]-4-(trifluoromethyl)phenoxy]ethylcarbamate] | 96 | – | – | 21 | < 4.57 | 6.00 |
| Cn1c(C(C)(C)C)c/c(=N\C(=O)c2cc(C(F)(F)F)ccc2OCC(O)CO)n1C[C@H]1CCCO1 (stereo partly drawn) [Example 42] | 20 | 6100 | 0.34 | 11 | – | – |
| Cn1c(C(C)(C)C)c/c(=N\C(=O)c2cc(C(F)(F)F)ccc2OCc2cccnc2)n1C[C@H]1CCCO1 [Example 43, N-{(3E)-5-tert-butyl-1-methyl-2-[(2R)-tetrahydrofuran-2-ylmethyl]-1,2-dihydro-3H-pyrazol-3-ylidene}-2-(pyridin-3-ylmethoxy)-5-(trifluoromethyl)benzamide] | 220 | > 27000 | 2.4 | 56 | – | – |
